Results from ChEMBL document CHEMBL5543131, “Discovery of Highly Potent Solute Carrier 13 Member 5 (SLC13A5) Inhibitors for the Treatment of Hyperlipidemia” (J Med Chem, 2024).
Values belong to the compound of their own block, whether it stands above or below them.

Key:
[1] = target: Na(+)/citrate cotransporter (Homo sapiens, UniProt Q86YT5); experiment: Inhibition of human SLC13A5 transfected in HEK293T cells incubated for 30 mins by D4-citrate uptake assay; format: cell-based
[2] = Toxicity in C57BL/6J mouse assessed as animal death at 100 mg/kg; format: organism-based; conditions: in vivo
[3] = Clearance in Sprague-Dawley rat at 5 mg/kg, iv measured after 24 hrs by LC-MS/MS analysis; format: ADME, organism-based; conditions: in vivo
[4] = Acute toxicity in C57BL/6J mouse at 50 to 300 mg/kg measured after 7 days; format: organism-based; conditions: in vivo, 168 h, dose 50-300 mg/kg, time 7 day
[5] = Half-life in Sprague-Dawley rat at 50 mg/kg, po measured after 24 hrs by LC-MS/MS analysis; format: ADME, organism-based; conditions: in vivo
HEK-293T = experiment: Cytotoxicity against HEK293T cells; format: toxicity, cell-based; conditions: human
[6] = Drug accumulation in Sprague-Dawley rat prostate gland at 5 mg/kg, po measured after 2 hrs by LC-MS/MS analysis; format: ADME, organism-based; conditions: in vivo
[7] = AUC (0 to infinity) in Sprague-Dawley rat at 50 mg/kg, po measured after 24 hrs by LC-MS/MS analysis; format: ADME, organism-based; conditions: in vivo
[8] = Volume of distribution in Sprague-Dawley rat at 5 mg/kg, iv measured after 24 hrs by LC-MS/MS analysis; format: ADME, organism-based; conditions: in vivo
[9] = Metabolic stability in rat liver microsome assessed as compound remaining measured after 2 hrs in presence of NADPH by LC-MS/MS analysis; format: ADME; conditions: liver microsomes, read-out: Stability
[10] = Drug accumulation in Sprague-Dawley rat liver at 5 mg/kg, po measured after 2 hrs by LC-MS/MS analysis; format: ADME, organism-based; conditions: in vivo
HepG2 = experiment: Cytotoxicity against human HepG2 cells; format: toxicity, cell-based
[11] = Metabolic stability in human plasma assessed as compound remaining measured after 2 hrs by LC-MS/MS analysis; format: ADME, cell-free; conditions: read-out: Stability
[12] = Half-life in Sprague-Dawley rat at 5 mg/kg, iv measured after 24 hrs by LC-MS/MS analysis; format: ADME, organism-based; conditions: in vivo
Huh-7 = experiment: Cytotoxicity against human Huh-7 cells; format: toxicity, cell-based
[13] = Oral bioavailability in Sprague-Dawley rat at 50 mg/kg measured after 24 hrs by LC-MS/MS analysis; format: ADME, organism-based; conditions: in vivo
[14] = Metabolic stability in human liver microsome assessed as compound remaining measured after 2 hrs in presence of NADPH by LC-MS/MS analysis; format: ADME; conditions: microsomes
[15] = Drug accumulation in Sprague-Dawley rat brain at 5 mg/kg, po measured after 2 hrs by LC-MS/MS analysis; format: ADME, organism-based; conditions: in vivo
[16] = Tmax in Sprague-Dawley rat at 50 mg/kg, po measured after 24 hrs by LC-MS/MS analysis; format: ADME, organism-based; conditions: in vivo
[17] = Cmax in Sprague-Dawley rat at 50 mg/kg, po measured after 24 hrs by LC-MS/MS analysis; format: ADME, organism-based; conditions: in vivo
[18] = Clearance in Sprague-Dawley rat at 50 mg/kg, po measured after 24 hrs by LC-MS/MS analysis; format: ADME, organism-based; conditions: in vivo
[19] = AUC (0 to infinity) in Sprague-Dawley rat at 5 mg/kg, iv measured after 24 hrs by LC-MS/MS analysis; format: ADME, organism-based; conditions: in vivo
[20] = Volume of distribution in Sprague-Dawley rat at 50 mg/kg, po measured after 24 hrs by LC-MS/MS analysis; format: ADME, organism-based; conditions: in vivo

Chain of Na(+)/citrate cotransporter (Q86YT5 whole entry): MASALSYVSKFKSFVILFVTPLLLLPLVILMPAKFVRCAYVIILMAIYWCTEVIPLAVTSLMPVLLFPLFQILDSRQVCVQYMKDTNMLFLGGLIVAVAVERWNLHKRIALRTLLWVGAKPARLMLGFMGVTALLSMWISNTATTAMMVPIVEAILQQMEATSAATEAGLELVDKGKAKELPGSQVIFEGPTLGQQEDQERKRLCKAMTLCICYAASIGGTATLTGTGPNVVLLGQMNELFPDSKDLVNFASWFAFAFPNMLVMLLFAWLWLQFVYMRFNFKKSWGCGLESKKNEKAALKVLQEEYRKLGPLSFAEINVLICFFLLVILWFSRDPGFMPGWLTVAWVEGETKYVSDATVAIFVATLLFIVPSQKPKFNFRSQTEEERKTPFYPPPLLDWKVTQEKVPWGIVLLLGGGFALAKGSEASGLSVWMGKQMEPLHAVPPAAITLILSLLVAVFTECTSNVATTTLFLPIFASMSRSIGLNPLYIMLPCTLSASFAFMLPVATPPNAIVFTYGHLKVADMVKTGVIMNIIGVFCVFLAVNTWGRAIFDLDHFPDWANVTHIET

Compound: O=C(O)CC(O)(CCc1ccc(-c2ccn[nH]2)cc1)C(=O)O (stereo unspecified)
IC50 [1]: 1180 nM

Compound: COc1cc(-c2ccc(CCC(O)(CC(=O)O)C(=O)O)cc2)ccn1 (stereo unspecified)
IC50 [1]: 860 nM

Compound: COc1cccc(-c2ccc(CCC(O)(CC(=O)O)C(=O)O)cc2)c1 (stereo unspecified)
IC50 [1]: 340 nM

Compound: Cn1nccc1-c1ccc(CCC(O)(CC(=O)O)C(=O)O)cc1 (stereo unspecified)
IC50 [1]: 1970 nM

Compound: CCOc1cccc(-c2ccc(CCC(O)(CC(=O)O)C(=O)O)cc2)c1 (stereo unspecified)
IC50 [1]: 310 nM

Compound: O=C(O)CC(O)(CCc1ccc(-c2ccccc2)cc1)C(=O)O (stereo unspecified)
Activity [2]: Non-Toxic
clearance [3]: 0.667 mL/min/kg
Activity [4]: Non-Toxic
half-life [5]: 1.09 h
Activity (HEK-293T): Non-Toxic
Drug uptake [6]: Active
AUC(0-inf) [7]: 705000 ng·h/mL
IC50 [1]: 67 nM
Vd [8]: 0.03 L/kg
remaining at 2 h [9]: > 60%
Drug uptake [10]: Active
Activity (HepG2): Non-Toxic
remaining at 2 h [11]: > 60%
half-life [12]: 0.69 h
Activity (Huh-7): Non-Toxic
bioavailability [13]: 48.7%
Stability [14]: Stable
Drug uptake [15]: Not Active
Tmax [16]: 0.76 h
Cmax [17]: 288 µg/mL
CL/F [18]: 1.17 mL/min/kg
AUC(0-inf) [19]: 145000 ng·h/mL
Vd [20]: 0.11 L/kg

Compound: O=C(O)CC(O)(CCc1ccc(-c2cccc3c2NCCC3)cc1)C(=O)O (stereo unspecified)
IC50 [1]: 350 nM

Compound: CC(C)Oc1cccc(-c2ccc(CCC(O)(CC(=O)O)C(=O)O)cc2)c1 (stereo unspecified)
IC50 [1]: 440 nM

Compound: CC(C)(C)c1ccc(CC[C@@](O)(CC(=O)O)C(=O)O)cc1
clearance [3]: 2 mL/min/kg
half-life [5]: 12.4 h
AUC(0-inf) [7]: 10600 ng·h/mL
Vd [8]: 0.69 L/kg
half-life [12]: 2.61 h
bioavailability [13]: 1.83%
Cmax [17]: 1.36 µg/mL
CL/F [18]: 80.8 mL/min/kg
AUC(0-inf) [19]: 40400 ng·h/mL
Vd [20]: 83.96 L/kg

Compound: O=C(O)CC(O)(CCc1ccc(N2CCOCC2)cc1)C(=O)O (stereo unspecified)
IC50 [1]: 860 nM

Other lines, results leading:

IC50 [1]: 270 nM
Compound: CCCOc1cccc(-c2ccc(CCC(O)(CC(=O)O)C(=O)O)cc2)c1 (stereo unspecified)

IC50 [1]: 210 nM
Compound: O=C(O)CC(O)(CCc1ccc(-c2ccccc2C(F)(F)F)cc1)C(=O)O (stereo unspecified)

IC50 [1]: 110 nM
Compound: O=C(O)CC(O)(CCc1ccc(-c2ccc3c(c2)OCO3)cc1)C(=O)O (stereo unspecified)

IC50 [1]: 190 nM
Compound: O=C(O)CC(O)(CCc1ccc(-c2cccc(OC(F)(F)F)c2)cc1)C(=O)O (stereo unspecified)

IC50 [1]: 290 nM
Compound: COc1ccccc1-c1ccc(CCC(O)(CC(=O)O)C(=O)O)cc1 (stereo unspecified)

IC50 [1]: 160 nM
remaining at 2 h [9]: > 60%
remaining at 2 h [11]: > 60%
Compound: O=C(O)CC(O)(CCc1nc2ccccc2s1)C(=O)O (stereo unspecified)

IC50 [1]: 73 nM
remaining at 2 h [9]: > 60%
remaining at 2 h [11]: > 60%
Compound: O=C(O)CC(O)(CCc1ccc2ccccc2c1)C(=O)O (stereo unspecified)

IC50 [1]: 130 nM
remaining at 2 h [9]: > 60%
remaining at 2 h [11]: > 60%
Compound: CCn1nccc1-c1ccc(CCC(O)(CC(=O)O)C(=O)O)cc1 (stereo unspecified)

IC50 [1]: 150 nM
Compound: O=C(O)CC(O)(CCc1ccc(-c2cccc(C(F)(F)F)c2)cc1)C(=O)O (stereo unspecified)
